Where a name gives a salt, the structure may show the parent alone.

One data set has as its system TNF-α production. Kind of data set: Effect on TNF-α production in mice (in vivo), LPS-induced. The note with it: serum TNF-α 90 min after LPS 500 μg/kg i.p.; test compound orally 30 min before LPS; ratio relative to test compound non-administration group. As to the method: (§1) Since the TNF-α concentration in serum reaches a peak at 90 min after LPS administration, the TNF-α concentration in the serum at this point was measured using FACTOR TEST mTNF-α (manufactured by Genzyme) and the IL-10 concentration at the same point of time was also measured using Murine IL-10 ELISA Kit (manufactured by Endogen). […] The effect of the test compound on the TNF-α production and IL-10 production was calculated by the following formula as the ratio relative to the test compound non-administration group.
Regarding `CC(=O)NC(C)c1ccc(CN2CCN(c3ccccc3)CC2)cc1` (centres unmarked) [Example 58, N-(1-(4-((4-Phenylpiperazin-1-yl)methyl)phenyl)ethyl)acetamide Dihydrochloride 1/4 Hydrate], the “TNF-α production (%)” value is 19%. With `CC(=O)NCc1ccc(CN2CCN(c3nccs3)CC2)cc1` [Example 81, N-(4-((4-(Thiazol-2-yl)piperazin-1-yl)methyl)phenylmethyl)acetamide Hydrochloride 1/2 Hydrate], the “TNF-α production (%)” value amounted to 11%.

Tested on in another data set: not given
Experiment: not given
Conditions: not given
In turn, `CC(=O)NC1(c2ccc(CN3CCN(c4ncccn4)CC3)cc2)CC1` [Example 71, N-(1-(4-((4-(Pyrimidin-2-yl)piperazin-1-yl)methyl)phenyl)cyclopropyl)acetamide] came in with a melting point of 145 to 146 °C. Still for that read-out and setting: the value for `NCc1ccc(CN2CCN(c3ncccn3)CC2)cc1` [Example 74, 2-(4-(4-(Aminomethyl)phenylmethyl)-piperazin-1-yl)pyrimidine] was 70 to 72 °C; that for `O=CNCc1ccc(CN2CCN(c3ncccn3)CC2)cc1` [Example 76, N-(4-((4-(Pyrimidin-2-yl)piperazin-1-yl)methyl)phenylmethyl)formamide] was 97 to 98 °C; that for `CC(=O)NCc1ccc(CN2CCN(c3nc(F)cc(F)n3)CC2)cc1` [Example 78, N-(4-((4-(4,6-Difluoropyrimidin-2-yl)piperazin-1-yl)methyl)phenylmethyl)acetamide] was 128 to 129 °C.

With `CC(=O)NCc1ccc(CN2CCN(c3cc(F)nc(F)n3)CC2)cc1` [Example 79, N-(4-((4-(2,6-Difluoropyrimidin-4-yl)piperazin-1-yl)methyl)phenylmethyl)acetamide], the melting point fell in the range of 127 to 128 °C.

`CC(=O)NCc1ccc(CN2CCN(c3nc(Cl)cc(Cl)n3)CC2)cc1` [Example 80, N-(4-((4-(4,6-Dichloropyrimidin-2-yl)piperazin-1-yl)methyl)phenylmethyl)acetamide]: the melting point fell in the range of 139 to 140 °C. Still for that read-out and setting: as for `CC(=O)NCc1ccc(CN2CCN(c3ccncc3)CC2)cc1` [Example 84, N-(4-((4-(Pyridin-4-yl)piperazin-1-yl)methyl)phenylmethyl)acetamide], the figure is 164 to 166 °C.

For `CC(=O)NCc1ccc(CN2CCN(c3ccc(Cl)cn3)CC2)cc1` [Example 86, N-(4-((4-(5-Chloropyridin-2-yl)piperazin-1-yl)methyl)phenylmethyl)acetamide], the melting point is 155 to 156 °C. Molecule `CC(=O)NCc1ccc(CN2CCN(c3cnccn3)CC2)cc1` [Example 87, N-(4-((4-(Pyrazin-2-yl)piperazin-1-yl)methyl)phenylmethyl)acetamide] had a melting point of 118 to 119 °C.

The molecule `CC(=O)NCc1ccc(CN2CCN(c3ncc([N+](=O)[O-])s3)CC2)cc1` [Example 88, N-(4-((4-(5-Nitrothiazol-2-yl)piperazin-1-yl)methyl)phenylmethyl)acetamide] came in with a melting point of 151 to 152 °C. Still for that read-out and setting: the value for `CC(=O)NCc1ccc(CN2CCN(c3cc(Cl)nc(Cl)n3)CC2)cc1` [Example 89, N-(4-((4-(2,6-Dichloropyrimidin-4-yl)piperazin-1-yl)methyl)phenylmethyl)acetamide] was 165 to 166 °C. Still for that read-out and setting: the value for `CC(=O)NCc1ccc(CN2CCN(c3nc(C)cc(C)n3)CC2)cc1` [Example 93, N-(4-((4-(4,6-Dimethylpyrimidin-2-yl)piperazin-1-yl)methyl)phenylmethyl)acetamide] was 127 to 128 °C. Still for that read-out and setting: as for `CC(=O)NC(C)(C)c1ccc(CN2CCN(c3nccs3)CC2)cc1` [Example 94, N-(1-Methyl-1-(4-((4-(thiazol-2-yl)piperazin-1-yl)methyl)phenyl)ethyl)acetamide], the figure is 118 to 120 °C. As for `CC(=O)NC(C)(C)c1ccc(CN2CCN(c3ncccn3)CC2)cc1` [Example 95, N-(1-Methyl-1-(4-((4-(pyrimidin-2-yl)piperazin-1-yl)methyl)phenyl)ethyl)acetamide], the melting point lay within 137 to 138 °C. In the case of `COc1cc(OC)nc(N2CCN(Cc3ccc(C(C)(C)NC(C)=O)cc3)CC2)n1` [Example 96, N-(1-(4-((4-(4,6-Dimethoxypyrimidin-2-yl)piperazin-1-yl)methyl)phenyl)-1-methylethyl)acetamide], the melting point was in the range of 199 to 202 °C.

With `CC(=O)NCc1ccc(CN2CCN(c3ccnc(Cl)n3)CC2)cc1` [Example 97, N-(4-((4-(2-Chloropyrimidin-4-yl)piperazin-1-yl)methyl)phenylmethyl)acetamide], the melting point was 132 to 133 °C.

For `CC(=O)NCc1ccc(CN2CCN(c3nccc(Cl)n3)CC2)cc1` [Example 97, N-(4-((4-(4-chloropyrimidin-2-yl)piperazin-1-yl)methyl)phenylmethyl)acetamide], the melting point was 122 to 124 °C.

Consider `CC(=O)NCc1ccc(CN2CCN(c3nccc(N(C)C)n3)CC2)cc1` [Example 99, N-(4-((4-(4-(N,N-Dimethylamino)pyrimidin-2-yl)piperazin-1-yl)methyl)phenylmethyl)acetamide], for which the melting point is 152 to 155 °C. Still for that read-out and setting: as for `CC(=O)NC1(c2ccc(CN3CCN(c4nccs4)CC3)cc2)CC1` [Example 100, N-(1-(4-((4-(Thiazol-2-yl)piperazin-1-yl)methyl)phenyl)cyclopropyl)acetamide], the figure is 184 to 185 °C; as for `CC(=O)NC(C)c1ccc(CN2CCN(c3nccs3)CC2)cc1` (centres unmarked) [Example 101, N-(1-(4-((4-(Thiazol-2-yl)piperazin-1-yl)methyl)phenyl)ethyl)acetamide], 136 to 137 °C; as for `CC(=O)NC(C)c1ccc(CN2CCN(c3cccc(F)n3)CC2)cc1` (centres unmarked) [Example 102, N-(1-(4-((4-(6-Fluoropyridin-2-yl)piperazin-1-yl)methyl)phenyl)ethyl)acetamide], 109 to 111 °C. Same read-out and setting: the value for `CC(=O)NC(C)c1ccc(CN2CCN(c3ccccn3)CC2)cc1` (centres unmarked) [Example 104, N-(1-(4-((4-(Pyridin-2-yl)piperazin-1-yl)methyl)phenyl)ethyl)acetamide] was 120 to 121 °C.

In turn, `CC(=O)NC(C)(C)c1ccc(CN2CCN(c3ccccn3)CC2)cc1` [Example 105, N-(1-Methyl-1-(4-((4-(pyridin-2-yl)piperazin-1-yl)methyl)phenyl)ethyl)acetamide] showed a melting point of 129 to 130 °C.

Take `COc1ccnc(N2CCN(Cc3ccc(C(C)(C)NC(C)=O)cc3)CC2)n1` [Example 106, N-(1-(4-((4-(4-Methoxypyrimidin-2-yl)piperazin-1-yl)methyl)phenyl)-1-methylethyl)acetamide]: the melting point fell in the range of 160 to 162 °C. Take `COc1ccnc(N2CCN(Cc3ccc(C(C)NC(C)=O)cc3)CC2)n1` (centres unmarked) [Example 107, N-(1-(4-((4-(4-Methoxypyrimidin-2-yl)piperazin-1-yl)methyl)phenyl)ethyl)acetamide]: the melting point lay in the range of 113 to 115 °C.

`CCOc1cc(OCC)nc(N2CCN(Cc3ccc(CNC(C)=O)cc3)CC2)n1` [Example 108, N-(4-((4-(4,6-Diethoxypyrimidin-2-yl)piperazin-1-yl)methyl)phenylmethyl)acetamide] showed a melting point of 119 to 120 °C. Same read-out and setting: the value for `CC(=O)NCc1ccc(CN2CCN(c3nc(N(C)C)cc(N(C)C)n3)CC2)cc1` [Example 109, N-(4-((4-(4,6-bis(Dimethylamino)-pyrimidin-2-yl)piperazin-1-yl)methyl)phenylmethyl)acetamide] was 189 to 190 °C (dec.). Turning to `COc1cc(N(C)C)nc(N2CCN(Cc3ccc(CNC(C)=O)cc3)CC2)n1` [Example 110, N-(4-((4-(4-Dimethylamino-6-methoxypyrimidin-2-yl)piperazin-1-yl)methyl)phenylmethyl)acetamide], the melting point was 115 to 118 °C.

For `CC(=O)NCc1ccc(CN2CCN(c3ncc(Br)s3)CC2)cc1` [Example 111, N-(4-((4-(5-Bromothiazol-2-yl)piperazin-1-yl)methyl)phenylmethyl)acetamide], the melting point was 160 to 163 °C. On the same count and under the same terms, as for `CC(=O)NCc1ccc(CN2CCN(c3ncc(Cl)s3)CC2)cc1` [Example 112, N-(4-((4-(5-Chlorothiazol-2-yl)piperazin-1-yl)methyl)phenylmethyl)acetamide], the figure is 142 to 145 °C (dec.); as for `CC(=O)NC1(c2ccc(CN3CCN(c4cccc(F)n4)CC3)cc2)CC1` [Example 117, N-(1-(4-((4-(6-Fluoropyridin-2-yl)piperazin-1-yl)methyl)phenyl)cyclopropyl)acetamide], 135 to 136 °C; as for `CC(=O)NC1(c2ccc(CN3CCN(c4ccccn4)CC3)cc2)CC1` [Example 118, N-(1-(4-((4-(Pyridin-2-yl)piperazin-1-yl)methyl)phenyl)cyclopropyl)acetamide], 145 to 147 °C.

The molecule `CC(=O)N[C@@H](C)c1ccc(CN2CCN(c3ccc(F)cc3)CC2)cc1` [Example 121, (S)-N-(1-(4-((4-(4-Fluorophenyl)piperazin-1-yl)methyl)phenyl)ethyl)acetamide] showed a melting point of 114 to 115 °C.

`CC(=O)N[C@H](C)c1ccc(CN2CCN(c3ccc(F)cc3)CC2)cc1` [Example 122, (R)-N-(1-(4-((4-(4-fluorophenyl)piperazin-1-yl)methyl)phenyl)ethyl)acetamide] displayed a melting point of 114 to 115 °C.

The test system of another data set is IL-10 production. Kind of data set: Effect on IL-10 production in mice (in vivo), LPS-induced. The note with it: serum IL-10 90 min after LPS 500 μg/kg i.p.; test compound orally 30 min before LPS; ratio relative to test compound non-administration group. As to the method: as §1
For the molecule `CC(=O)NC(C)c1ccc(CN2CCN(c3ccccc3)CC2)cc1` (centres unmarked) [Example 58, N-(1-(4-((4-Phenylpiperazin-1-yl)methyl)phenyl)ethyl)acetamide Dihydrochloride 1/4 Hydrate], the “IL-10 production (%)” value was determined as 499%.

On to `CC(=O)NCc1ccc(CN2CCN(c3nccs3)CC2)cc1` [Example 81, N-(4-((4-(Thiazol-2-yl)piperazin-1-yl)methyl)phenylmethyl)acetamide Hydrochloride 1/2 Hydrate], for which the “IL-10 production (%)” value turned out to be 1035%.

(Values after patent US6455528B1, “Piperazine compounds and medicinal use thereof” (Mitsubishi Pharma Corporation, priority 1997, dated 2002).)
